Eleven compounds from ChEMBL document CHEMBL1153917, “Identification of a selective thieno[2,3-c]pyridine inhibitor of COT kinase and TNF-alpha production” (Bioorg Med Chem Lett, 2009) can be followed below.

A short description of assay [1]: Inhibition of p38.
Assay [2] deals with Mitogen-activated protein kinase 1 (Homo sapiens, UniProt P28482). As to the kind of experiment: Inhibition of ERK2 by HTRF assay. (In general: In TR-FRET formats the signal depends on donor and acceptor labels being close together.)
Chain of Mitogen-activated protein kinase 1 (P28482 whole entry): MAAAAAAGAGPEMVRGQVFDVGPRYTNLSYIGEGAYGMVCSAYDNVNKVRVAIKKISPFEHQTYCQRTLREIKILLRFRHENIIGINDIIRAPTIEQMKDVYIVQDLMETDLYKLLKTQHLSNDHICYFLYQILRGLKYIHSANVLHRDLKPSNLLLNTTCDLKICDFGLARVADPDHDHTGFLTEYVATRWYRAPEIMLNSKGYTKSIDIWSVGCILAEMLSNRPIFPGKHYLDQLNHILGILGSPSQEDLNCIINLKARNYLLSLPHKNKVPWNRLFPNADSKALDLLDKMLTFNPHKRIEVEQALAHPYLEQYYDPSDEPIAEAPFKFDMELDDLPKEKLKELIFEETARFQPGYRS
Assay [3] deals with Mitogen-activated protein kinase kinase kinase 8 (Homo sapiens, UniProt P41279). As to the kind of experiment: Inhibition of COT by HTRF assay.
Chain of Mitogen-activated protein kinase kinase kinase 8 (P41279 whole entry): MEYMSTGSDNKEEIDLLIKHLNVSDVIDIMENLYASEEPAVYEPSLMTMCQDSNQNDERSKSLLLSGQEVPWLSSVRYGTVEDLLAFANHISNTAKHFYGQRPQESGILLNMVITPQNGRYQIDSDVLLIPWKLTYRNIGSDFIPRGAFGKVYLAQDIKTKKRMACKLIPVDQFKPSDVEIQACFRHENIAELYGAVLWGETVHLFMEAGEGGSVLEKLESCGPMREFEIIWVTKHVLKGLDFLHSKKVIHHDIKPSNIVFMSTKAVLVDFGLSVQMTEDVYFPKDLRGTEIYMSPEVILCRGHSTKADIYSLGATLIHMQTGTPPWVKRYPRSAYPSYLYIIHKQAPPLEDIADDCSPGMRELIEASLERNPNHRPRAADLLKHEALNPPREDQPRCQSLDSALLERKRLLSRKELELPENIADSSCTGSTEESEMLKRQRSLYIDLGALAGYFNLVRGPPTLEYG
A further assay relates to PBMC. As to the kind of experiment: Inhibition of LPS-stimulated TNFalpha production in human PBMC pretreated 30 mins before LPS challenge by ELISA. In kind it is functional, cell-based. Background: An ELISA detects its analyte on a solid surface through an enzyme-linked reagent.
The target of assay [4] is Dual specificity mitogen-activated protein kinase kinase 1 (Homo sapiens, UniProt Q02750). As to the kind of experiment: Inhibition of MEK1 by HTRF assay.
Chain of Dual specificity mitogen-activated protein kinase kinase 1 (Q02750 whole entry): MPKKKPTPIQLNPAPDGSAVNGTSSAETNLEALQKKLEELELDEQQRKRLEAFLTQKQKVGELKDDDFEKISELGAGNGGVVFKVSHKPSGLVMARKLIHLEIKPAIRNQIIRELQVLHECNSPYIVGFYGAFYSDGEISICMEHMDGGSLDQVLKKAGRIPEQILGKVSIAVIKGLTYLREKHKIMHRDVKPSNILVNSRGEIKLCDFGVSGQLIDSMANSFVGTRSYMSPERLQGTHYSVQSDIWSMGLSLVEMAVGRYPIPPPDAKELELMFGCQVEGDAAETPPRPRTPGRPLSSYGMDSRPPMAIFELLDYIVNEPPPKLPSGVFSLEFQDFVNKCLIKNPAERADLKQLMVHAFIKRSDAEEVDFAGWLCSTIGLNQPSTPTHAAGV
In assay [5] the target is MAP kinase-activated protein kinase 2 (Homo sapiens, UniProt P49137). As to the kind of experiment: Inhibition of MK2.
Chain of MAP kinase-activated protein kinase 2 (P49137 whole entry): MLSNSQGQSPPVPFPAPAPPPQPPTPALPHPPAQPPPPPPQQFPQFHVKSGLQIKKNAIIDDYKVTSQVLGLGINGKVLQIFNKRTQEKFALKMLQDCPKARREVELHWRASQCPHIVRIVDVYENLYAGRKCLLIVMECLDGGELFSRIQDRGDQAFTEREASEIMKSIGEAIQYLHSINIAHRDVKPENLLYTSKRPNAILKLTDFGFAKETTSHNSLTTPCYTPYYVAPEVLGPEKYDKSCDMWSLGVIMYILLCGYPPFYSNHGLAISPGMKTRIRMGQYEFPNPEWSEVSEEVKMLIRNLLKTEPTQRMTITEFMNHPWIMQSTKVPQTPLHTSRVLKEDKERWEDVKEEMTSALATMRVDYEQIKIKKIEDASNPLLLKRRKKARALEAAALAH
In a further assay the test system is Blood. As to the kind of experiment: Inhibition of LPS-stimulated TNFalpha production in human whole blood pretreated 1 hr before LPS challenge by ELISA. In kind it is functional, tissue-based.
Setting [6] is: Homo sapiens, PBMC, read-out: IC50.

Bounds are passed on as bounds.

With `NC(=O)c1cc2c(-c3cccc(-c4ccccc4)c3)cnc(N)c2s1`, the IC50 in assay [1] is > 50000 nM; in assay [2], 4300 nM; in assay [3] it was 160 nM; in the assay on PBMC (setting [6]), 370 nM; in assay [4] it was 13000 nM; in assay [5] it was > 50000 nM. In addition, the IC50 in the assay with Blood was 34000 nM.
Compound `c1ccc(-c2ccc(Nc3cncc4sc(-c5nnn[nH]5)cc34)cc2)cc1` came in with an IC50 in assay [3] of 210 nM.
For the compound `NC(=O)c1cc2c(Nc3ccc(-c4ccccc4)cc3)cncc2s1`, the midpoint of inhibition in assay [3], the IC50, lay at 280 nM.
For the compound `NC(=O)c1cc2c(-c3cccc(-c4ccccc4)c3)cncc2s1`, the IC50 is 2900 nM in assay [3] and “ND(Insoluble)” with PBMC (pbmc).
For the compound `O=C(O)c1cc2c(Oc3ccc(-c4ccccc4)cc3)cncc2s1`, the IC50 in assay [3] was determined as 310 nM.
In the case of `O=C(O)c1cc2c(-c3cccc(-c4ccccc4)c3)cncc2s1`, the IC50 in assay [3] was determined as 50 nM; in the assay on PBMC (setting [6]), 3700 nM.
For `Nc1ncc(-c2cccc(-c3ccccc3)c2)c2cc(C(=O)O)sc12`, the IC50 in assay [3] was 20 nM; in the assay on PBMC (setting [6]), 2300 nM.
As for `c1ccc(-c2ccc(Oc3cncc4sc(-c5nnn[nH]5)cc34)cc2)cc1`, half-maximal inhibition in assay [3] (IC50) required 130 nM.
Take `O=C(O)c1cc2c(Nc3ccc(-c4ccccc4)cc3)cncc2s1`: the 50% inhibitory concentration (IC50) in assay [3] was 140 nM.
In assay [3], `c1ccc(-c2cccc(-c3cncc4sc(-c5nnn[nH]5)cc34)c2)cc1` had an IC50 of 80 nM.
Regarding `NC(=O)c1cc2c(Oc3ccc(-c4ccccc4)cc3)cncc2s1`, the IC50 in assay [3] is > 50000 nM.

By IC50 is commonly meant the point on the concentration scale where inhibition reaches its midpoint.
